From patent US20090105282A1, “METHODS OF TREATING BENIGN PROSTATIC HYPERPLASIA OR LOWER URINARY TRACT SYMPTOMS BY USING PDE 5 INHIBITORS” (Schering-Plough Corporation, priority 2005, published 2009)

These molecules were tested against PDE 5 (Homo sapiens, UniProt O76074) (assay: PDE 5 enzyme inhibition (PDE 5 IC50)).
Assay type: biochemical

IC50 | SMILES
5 to 10 nM | Cn1c(=O)c2c(nc(NC3CCCCC3)n2Cc2ccc(O)cc2)n(C)c1=O [Compound 37]
15 to 100 nM | COc1ccc(Cn2c(NC3CC4CCC3C4)nc3c2c(=O)n(C)c(=O)n3C)cc1 (stereo not drawn) [Compound 77]
5 to 10 nM | CCn1c(=O)c2c(nc(NC3CCCC3)n2Cc2ccc(O)cc2)n(C)c1=O [Compound 79]
≤ 5 nM | CCn1c(=O)c2c(nc(NC3CCCCC3)n2Cc2ccc(OC)cc2)n(CCO)c1=O [Compound 103]
≤ 5 nM | CCn1c(=O)c2c(nc(NC3CCCCC3)n2Cc2ccc(O)cc2)n(CCO)c1=O [Compound 104]
≤ 5 nM | CCn1c(=O)c2c(nc(NC3CCCCC3)n2Cc2ccc(OC)c(Cl)c2)n(CCO)c1=O [Compound 105]
≤ 5 nM | CCn1c(=O)c2c(nc(N[C@@H]3CCC[C@H]3O)n2Cc2ccc(OC)c(Cl)c2)n(CCO)c1=O [Compound 106]
≤ 5 nM | CCn1c(=O)c2c(nc(NC3CCCCC3)n2Cc2ccc(O)c(Cl)c2)n(CCO)c1=O [Compound 107]
≤ 5 nM | CCn1c(=O)c2c(nc(NC3CCCCC3)n2Cc2ccc(O)c(Br)c2)n(CCO)c1=O [Compound 116]
≤ 5 nM | CCn1c(=O)c2c(nc(NC3CCCCC3)n2Cc2ccc(OC)c(Br)c2)n(CCO)c1=O [Compound 117]
≤ 5 nM | CCn1c(=O)c2c(nc(N[C@@H]3CCC[C@H]3O)n2Cc2ccc(O)c(Br)c2)n(CCO)c1=O [Compound 118]
≤ 5 nM | CCn1c(=O)c2c(nc(NC3CCCCC3)n2Cc2ccc(S(N)(=O)=O)cc2)n(CC)c1=O [Compound 119]
≤ 5 nM | CCn1c(=O)c2c(nc(NC3CCCCC3)n2Cc2ccc(OC)c(Br)c2)n(CC)c1=O [Compound 122]
≤ 5 nM | CCn1c(=O)c2c(nc(N[C@@H]3CCC[C@H]3O)n2Cc2ccc(OC)c(Br)c2)n(CC)c1=O [Compound 123]
≤ 5 nM | CCn1c(=O)c2c(nc(N[C@@H]3CCCC[C@@H]3O)n2Cc2ccc(OC)c(Br)c2)n(CC)c1=O [Compound 124]
15 to 100 nM | Cn1c(=O)c2c(nc(NC3CCCCC3)n2Cc2cccc(O)c2)n(C)c1=O [Compound 146]
15 to 100 nM | Cc1cc(Cn2c(NC3CCCCC3)nc3c2c(=O)n(C)c(=O)n3C)ccc1O [Compound 147]
15 to 100 nM | Cn1c(=O)c2c(nc(NC3CCCCC3)n2Cc2ccccc2Cl)n(C)c1=O [Compound 148]
≤ 5 nM | CCn1c(=O)c2c(nc(NC3CCCCC3)n2Cc2ccc3c(c2)OCO3)n(CC)c1=O [Compound 168]
≤ 5 nM | CCn1c(=O)c2c(nc(NC3CCCCC3)n2Cc2ccc(O)c(C)c2)n(CC)c1=O [Compound 169]
≤ 5 nM | CCn1c(=O)c2c(nc(NC3CCCCC3)n2Cc2cccc(O)c2)n(CC)c1=O [Compound 170]
≤ 5 nM | CCn1c(=O)c2c(nc(NC3CCOCC3)n2Cc2ccc(OC)c(Br)c2)n(CCO)c1=O [Compound 186]
≤ 5 nM | CCN(CC)CCn1c(=O)n(CC)c(=O)c2c1nc(NC1CCCCC1)n2Cc1ccc(OC)c(Br)c1 [Compound 187]
≤ 5 nM | CCn1c(=O)c2c(nc(NC3CCOCC3)n2Cc2ccc(S(N)(=O)=O)cc2)n(CC)c1=O [Compound 188]
